Results on 7 compounds are retold here after ChEMBL document CHEMBL5050833, “Novel cyclic trex1 inhibitors” (2020).

For orientation: ΔTm means the shift of the melting midpoint relative to a reference. For orientation: IC50 means the midpoint of a concentration-inhibition curve.

For assay [1], the species on record is Mus musculus. Nature of the assay: Binding affinity to recombinant mouse TREX1 incubated in PBS and measured by thermal shift binding assay.
For assay [2], the species on record is Homo sapiens. Kind of assay: Binding affinity to recombinant human TREX1 incubated in assay buffer and measured by thermal shift binding assay.
Assay [3] can be described thus: Inhibition of mouse TREX1 exonuclease activity using labeled DNA oligonucleotide as substrate incubated for 30 mins and measured after 45 mins by fluorescence assay.
The species named for assay [4] is Homo sapiens. Kind of assay: Binding affinity to recombinant human TREX1 incubated in PBS and measured by thermal shift binding assay.
For assay [5], the species on record is Mus musculus. Kind of assay: Binding affinity to recombinant mouse TREX1 incubated in assay buffer and measured by thermal shift binding assay.
Assay [6] is described as follows: Inhibition of human TREX1 exonuclease activity using labeled DNA oligonucleotide as substrate incubated for 30 mins and measured after 45 mins by fluorescence assay.

`N[C@@H]1C[C@H]2C(=O)N([C@H](CCC(=O)O)C(=O)NCc3ccc(Cl)c(Cl)c3)CCC(CCc3ccccc3)N2C1` (stereo in doubt; form 2): the ΔTm in the assay listed under Mus musculus [1] and in the assay filed under Homo sapiens [2] was greater than 8 °C each time.
In the case of `N[C@@H]1C[C@H]2C(=O)N([C@H](CO)C(=O)NCc3ccc(Cl)c(Cl)c3)CCC(CCc3ccccc3)N2C1` (stereo partly drawn), the shift in melting temperature (ΔTm) is 4 °C in the assay listed under Mus musculus [1], greater than 8 °C in the assay filed under Homo sapiens [2], greater than 8 °C in the assay listed under Homo sapiens [4] and 4 °C in the assay listed under Mus musculus [5]. The IC50 in assay [3] and in assay [6] was less than 1000 nM in each case.
Turning to `N[C@@H]1C[C@H]2C(=O)N([C@H](Cc3ccc(O)cc3)C(=O)NCc3ccc(Cl)c(Cl)c3)CCC(CCc3ccccc3)N2C1` (stereo partly drawn), the ΔTm in the assay filed under Mus musculus [1] is 4 °C; in the assay filed under Homo sapiens [2], greater than 8 °C; in the assay filed under Homo sapiens [4], greater than 8 °C; in the assay listed under Mus musculus [5], 4 °C. In addition, the concentration for half-maximal inhibition (IC50) in assay [3] and in assay [6] was less than 1000 nM each time.
In the case of `N[C@@H]1C[C@H]2C(=O)N([C@H](CCC(=O)O)C(=O)NCc3ccc(C(F)(F)F)cc3)CCC(CCc3ccccc3)N2C1` (stereo in doubt; form 2), the ΔTm in the assay filed under Mus musculus [1] is 4 °C; in the assay filed under Homo sapiens [2] it was greater than 8 °C; in the assay filed under Homo sapiens [4], greater than 8 °C; in the assay filed under Mus musculus [5], 4 °C.
Take `N[C@@H]1C[C@H]2C(=O)N([C@H](CCC(=O)O)C(=O)NCc3ccc(Cl)c(Cl)c3)CCC(COc3ccccc3)N2C1` (stereo partly drawn): the 50% inhibitory concentration (IC50) in assay [3] and in assay [6] was less than 1000 nM each time.
Take `CC(C)C[C@H](C(=O)NCc1ccc(Cl)c(Cl)c1)N1CCC(CCc2ccccc2)N2C[C@H](N)C[C@H]2C1=O` (stereo partly drawn): the thermal shift (ΔTm) is 4 °C in the assay filed under Mus musculus [1], greater than 8 °C in the assay filed under Homo sapiens [2], greater than 8 °C in the assay filed under Homo sapiens [4] and 4 °C in the assay filed under Mus musculus [5]. Besides, the IC50 in assay [3] and in assay [6] was less than 1000 nM in each case.
As for `CC(C)C[C@H](C(=O)NCCc1ccccc1)N1CCC(CCc2ccccc2)N2C[C@H](N)C[C@H]2C1=O` (stereo partly drawn), the IC50 entry is “in the range around 10000 nM” in assay [3] and “in the range around 1000 nM” in assay [6].
